From patent US20230357292A1, “MULTI-COORDINATE GOLD-PHOSPHINE COMPOUNDS AND METHOD OF USE” (University of Kentucky Research Foundation, priority 2020, published 2023)

Assays:
A2780 (ovarian) = conditions: A2780 (ovarian), 4,000 cells/well, treated 72 h, mean ± SD (n = 3)
Method: (§1) All cell lines (OVCAR8, A2780, H460, and MDA-MB-231) were cultivated in RPMI or DMEM supplemented with 10% FBS, 1% penicillin/streptomycin, and 1% amphotericin. All cells were grown at 310K in a humidified atmosphere containing 5% CO2.
(§2) Various established human ovarian, lung, and breast cancer cell lines were seeded in 96-well plates (4000 cells/well) and were incubated with RPMI 1640 or DMEM (100 μL) supplemented with 10% FBS, 1% penicillin/streptomycin, and 1% amphotericin for 24 h and at 37° C. They were then treated with AuPhos compounds at increasing concentrations for 72 h from stock solutions following serial dilutions, in which AuPhos stock solutions were prepared in DMSO/media mixture (% v/v=20:80). Thereafter, cellular viability was assessed via the established crystal violet colorimetric assay. In brief, cells were fixed with 50 μL of a 1% glutaraldehyde solution and placed in an incubator (37° C., 5% CO2) for 1 hour. The plates were washed with water by running them under a gentle flow of tap water. The plates were air-dried, and crystal violet reagent was added to each well and allowed to incubate at room temperature for 20 min. The plates were washed with water and dried again. Methanol (200 μL/well) was added to each well, and the measurements of absorbance were subsequently performed using a Biotek Synergy H1 Plate Reader at 570 nm (peak absorbance).

H460 (lung) = conditions: H460 (lung), 4,000 cells/well, treated 72 h, mean ± SD (n = 3)
Method: as §1, §2

OVCAR8 (ovarian) = conditions: OVCAR8 (ovarian), 4,000 cells/well, treated 72 h, mean ± SD (n = 3)
Method: as §1, §2

[Cl-].[Cl][Au-]1([c]2ccccc2-c2ccccn2)[P+](c2ccccc2)(c2ccccc2)c2ccccc2[P+]1(c1ccccc1)c1ccccc1 [AuPhos-89, (2-phenylpyridine)[1,2-Bis(diphenylphosphino)benzene]gold(III) Dichloride]
IC50 (A2780 (ovarian)): 0.34 ± 0.07 µM | IC50 (H460 (lung)): 0.72 ± 0.16 µM | IC50 (OVCAR8 (ovarian)): 1.16 ± 0.04 µM
